The values below come from patent US7763604B2, “Methods for administration of a farnesyl dibenzodiazepinone” (Thallion Pharma Ceuticals, Inc., priority 2005, dated 2010).

Data set [1] in a line: pharmacokinetics of 14-day CIV infusion in rats. The class given is in vivo, Sprague-Dawley rats. The following applies: calculated at the end of treatment. As to the method: (§1) Sprague-Dawley rats received an intravenous continuous infusion over 14 days of Formula I at 25 mg/kg/day, 50 mg/kg/day, or 75 mg/kg/day at a rate of 2 mL/kg/h for 14 consecutive days (same formulation as in Example 7). Blood was collected from the jugular vein in tubes containing K2 EDTA from 3 rats/sex/group at the following time points: 2, 6, and 12 hours after the start of dosing on Day 1, on Day 2 at 6 hours (approximately 30 hours after the start of dosing), on Days 6 and 10 at 6 hours, and on Day 15, 1 hour prior the end of dosing, and then at 5 min, 15 min, 30 min, 1 h, and 2 h after the end of dosing.

Data set [2] in a line: population pharmacokinetic analysis, monkey (CIV). The class given is in vivo. Also noted: mean clearance: unit not given here. The following applies: for mean clearance: monkeys, 14-day continuous infusion. As to the method: An analysis was performed to derive allometric equations for Formula I pharmacokinetic parameters using Formula I plasma concentration-time data from three species, including mouse, rat, and monkey, and to estimate human pharmacokinetic parameters from those allometric equations.
Plasma concentrations of Formula I were obtained from mice, rats, and monkeys following intravenous injection or continuous infusion. Formula I pharmacokinetic parameters in mice, rats, and monkeys were estimated using population pharmacokinetic analysis, a function of the software program NONMEM™ (version 5). Typical population pharmacokinetic parameters for Formula I in humans were extrapolated from allometric equations that were derived from pharmacokinetic parameters estimated in the three animal species.
A two-compartment model with a first-order elimination from the central compartment adequately described Formula I plasma concentration-time profiles following intravenous bolus injection (30 mg/kg) in mice and rats, 7-day continuous infusion in rats (50 to 170 mg/kg/day), and 14-day continuous infusion in monkeys (5 to 30 mg/kg/day).
Application of a two-compartment model with Michaelis-Menten elimination better described the concentration data in monkeys than the linear model. Because the target concentration in humans is 2 μM, at which linear pharmacokinetics is assumed, all simulations for human plasma concentrations were performed based on a two-compartment model with linear first-order elimination.

A short description of data set [3]: toxicity of 14-day infusion in rats. The class given is in vivo. The following applies: all treated and control groups, attributed to the vehicle. As to the method:
as §1
The toxicity was due to the vehicle and was attributed to smaller size of infusion vessels, and concurrent catheter tract infection.

Data set [4] deals with rat glioma (C6) tumor xenograft. As to the kind of experiment: rat C6 glioblastoma subcutaneous tumor model, antitumor efficacy. The class given is in vivo, female athymic (nu/nu) nude mice. The protocol: The rat C6 glioblastoma antitumor efficacy study was performed at INSERM U318 (Grenoble, France). The rat C6 glioblastoma subcutaneous tumor model is based on the use of a rat C6 cell line obtained from a rat glial tumor induced by N-nitrosomethylurea (Benda et al. (1968), Science, vol 161, 370-371). These animal studies were done according to ethical guidelines of animal experimentation (Charte du comité d'éthique du CNRS, 2003) and the English “Guidelines for the welfare of animals in experimental neoplasia (Second Edition)” from the United Kingdom Coordinating Committee on Cancer Research (UKCCCR) (Workman et al. (1998), Br. J. Cancer, vol 77, no 1, 1-10). On each dosing day, Formula I stock solutions (24 and 40 mg/mL in 20% ethanol, 20% PEG-400 and 60% Tween 80) were diluted with sterile 5% dextrose in water (D5W) to prepare dosing solutions of 6 mg/mL and 10 mg/mL of Formula I in a vehicle consisting of 5% ethanol, 5% PEG-400, 15% Tween-80, and 75% D5W.
For the rat glioma antitumor efficacy study, female athymic (nu/nu) nude mice (6-7 weeks of age) were inoculated SC with 5×10^6 C6 cells (day 0). Tumor bearing animals were randomized (10 per group) when tumors were palpable (day 6). Group 1 (control group) received drug-free vehicle (5% ethanol, 5% PEG-400, 15% Tween-80, and 75% D5W) IP (5 mL/kg), once daily on days 6-18 (q1d×13). Group 2 received Formula I (6 mg/mL) IP at 20 mg/kg, once daily on days 6 to 13 and then at 10 mg/kg once daily on days 14 to 18. Group 3 received Formula I (6 mg/mL) SC at 30 mg/kg, once daily on days 6 to 13 and then at 15 mg/kg once daily on days 14 to 18. Group 4 received Formula I (10 mg/mL) IV at 100 mg/kg q1d×5 for 2 weeks. Each animal was euthanized when its tumor reached the predetermined endpoint size (˜2,500 mm^3) or at the end of the study (D18). Treatment period was over 13 days, from day 6 to day 18, post tumor cell inoculation. Tumor growth inhibition (TGI) was calculated on day 16 post tumor cell inoculation, at which time some animals from the vehicle control group had to be sacrificed due to tumor burden.
In this model and the models of Examples 3, 6 and 7, tumor growth was followed every other day by measuring tumor length (L) and width (W) using a calliper. Measurements were converted to tumor volumes (TV; mm^3) using the standard formula, TV=(L×W^2)/2. Tumor volume at day n was expressed as relative tumor volume (RTV) according to the following formula RTV=TVn/TV0, where TVn is the tumor volume at day n and TV0 is the tumor volume at day 0. The percentage of tumor growth inhibition (% TGI) was determined by 1−(mean RTV of treated group/mean RTV of control group)×100. […] Statistical analysis was calculated by the two-tailed unpaired t test using the Prism software. […]

With `CC(C)=CCC/C(C)=C/CC/C(C)=C/CN1C(=O)c2cccc(O)c2Nc2c(O)cc(O)cc21` [Formula I, 10-farnesyl-4,6,8-trihydroxy-dibenzodiazepin-11-one], the T1/2z in data set [1] (CIV 25 mg/kg/day) is on record as 1.6 h; in data set [1] (CIV 50 mg/kg/day), 1.2 h; in data set [1] (CIV 75 mg/kg/day), 1.2 h. In data set [2] (Monkey (CIV), population PK), this molecule returned a Ke of 2.172 h⁻¹. In addition, the mean clearance in data set [2] (5 mg/kg/day) is 0.63; in data set [2] (15 mg/kg/day), 0.57; in data set [2] (30 mg/kg/day) it was 0.23. The “findings at the site of infusion” value in data set [3] was “necrotization and inflammatory lesions at the site of infusion”. Moreover, the “Maximum body weight loss” value was found to be 15% in data set [4] (IP 20 mg/kg (Q1D×8) followed by 10 mg/kg (Q1D×7), Day 13) and 11% in data set [4] (SC 30 mg/kg (Q1D×8) followed by 15 mg/kg (Q1D×7)). For the same molecule, the “tumor volume relative to the vehicle control” value in data set [4] (IV bolus 100 mg/kg (Q1D×5) over 2 weeks) is given as “No significant difference in tumor volume”. Moreover, the body weight loss entry in data set [4] (IV group, 100 mg/kg (Q1D×5) over 2 weeks) is reported as “No significant body weight loss”.
